Experimental findings from ChEMBL document CHEMBL5303573, “Mapping human microbiome drug metabolism by gut bacteria and their genes” (Nature, 2019) are described below.

Series [1] in a line: The drug is tested on Enterobacter cancerogenus strain: ATCC35316 for biotransformation. The drug concentrations were measured before and after a 12-h incubation by liquid-chromatography-coupled mass spectrometry (LC–MS). The conditions noted are these: 2 µM.
Series [2] in a line: The drug is tested on Bacteroides pectinophilus strain: ATCC43243 for biotransformation. The drug concentrations were measured before and after a 12-h incubation by liquid-chromatography-coupled mass spectrometry (LC–MS). The conditions noted are these: 2 µM.
For series [3] the following is noted: parabacteroides johnsonii, 12 h, 2 µM.
Description: The drug is tested on Parabacteroides johnsonii strain: DSM18315 for biotransformation. The drug concentrations were measured before and after a 12-h incubation by liquid-chromatography-coupled mass spectrometry (LC–MS)
The conditions of series [4]: bacteroides stercoris, 12 h, 2 µM.
Description: The drug is tested on Bacteroides stercoris strain: ATCC43183 for biotransformation. The drug concentrations were measured before and after a 12-h incubation by liquid-chromatography-coupled mass spectrometry (LC–MS)
The conditions of series [5]: akkermansia muciniphila, 12 h, 2 µM.
Description: The drug is tested on Akkermansia muciniphila strain: ATCC BAA-835 for biotransformation. The drug concentrations were measured before and after a 12-h incubation by liquid-chromatography-coupled mass spectrometry (LC–MS)
Series [6] is described as follows: The drug is tested on Providencia stuartii strain: ATCC25827 for biotransformation. The drug concentrations were measured before and after a 12-h incubation by liquid-chromatography-coupled mass spectrometry (LC–MS). The conditions noted are these: 2 µM.
For series [7] the following is noted: enterocloster bolteae, 12 h, 2 µM.
Description: The drug is tested on Clostridium bolteae strain: ATCCBAA-613 for biotransformation. The drug concentrations were measured before and after a 12-h incubation by liquid-chromatography-coupled mass spectrometry (LC–MS)
The nature of series [8]: The drug is tested on Ruminococcus gnavus strain: ATCC29149 for biotransformation. The drug concentrations were measured before and after a 12-h incubation by liquid-chromatography-coupled mass spectrometry (LC–MS). The conditions noted are these: mediterraneibacter gnavus, 2 µM.
For series [9] the following is noted: parabacteroides distasonis, 12 h, 2 µM.
Description: The drug is tested on Parabacteroides distasonis strain: ATCC8503 for biotransformation. The drug concentrations were measured before and after a 12-h incubation by liquid-chromatography-coupled mass spectrometry (LC–MS)
Series [10] can be described thus: The drug is tested on Bacteroides fragilis strain: HMW615 for biotransformation. The drug concentrations were measured before and after a 12-h incubation by liquid-chromatography-coupled mass spectrometry (LC–MS). The conditions noted are these: 2 µM.
Series [11] can be described thus: The drug is tested on Coprococcus comes strain: ATCC27758 for biotransformation. The drug concentrations were measured before and after a 12-h incubation by liquid-chromatography-coupled mass spectrometry (LC–MS). The series is classed as ADME. Also on record: dose 2 uM, timepoint 0 vs 12 hours. The conditions noted are these: 2 µM.
A short description of series [12]: The drug is tested on Bacteroides xylanisolvens strain: DSM18836 for biotransformation. The drug concentrations were measured before and after a 12-h incubation by liquid-chromatography-coupled mass spectrometry (LC–MS). The conditions noted are these: 2 µM.
For series [13] the following is noted: bacteroides intestinalis, 12 h, 2 µM.
Description: The drug is tested on Bacteroides intestinalis strain: DSM17393 for biotransformation. The drug concentrations were measured before and after a 12-h incubation by liquid-chromatography-coupled mass spectrometry (LC–MS)
Series [14] can be described thus: The drug is tested on Bacteroides cellulosilyticus strain: DSM14838 for biotransformation. The drug concentrations were measured before and after a 12-h incubation by liquid-chromatography-coupled mass spectrometry (LC–MS). The conditions noted are these: 2 µM.
A short description of series [15]: The drug is tested on Blautia hansenii strain: DSM20583 for biotransformation. The drug concentrations were measured before and after a 12-h incubation by liquid-chromatography-coupled mass spectrometry (LC–MS). The conditions noted are these: 2 µM.
A short description of series [16]: The drug is tested on Dorea formicigenerans strain: ATCC27755 for biotransformation. The drug concentrations were measured before and after a 12-h incubation by liquid-chromatography-coupled mass spectrometry (LC–MS). The conditions noted are these: 2 µM.
Series [17] is described as follows: The drug is tested on Bacteroides coprophilus strain: DSM18228 for biotransformation. The drug concentrations were measured before and after a 12-h incubation by liquid-chromatography-coupled mass spectrometry (LC–MS). The conditions noted are these: 2 µM.
A short description of series [18]: The drug is tested on Edwardsiella tarda strain: ATCC23685 for biotransformation. The drug concentrations were measured before and after a 12-h incubation by liquid-chromatography-coupled mass spectrometry (LC–MS). The conditions noted are these: 2 µM.
Series [19] is described as follows: The drug is tested on Bacteroides fragilis strain: HMW610 for biotransformation. The drug concentrations were measured before and after a 12-h incubation by liquid-chromatography-coupled mass spectrometry (LC–MS). The conditions noted are these: 2 µM.
Series [20] in a line: The drug is tested on Bacteroides vulgatus strain: ATCC8482 for biotransformation. The drug concentrations were measured before and after a 12-h incubation by liquid-chromatography-coupled mass spectrometry (LC–MS). The conditions noted are these: phocaeicola vulgatus, 2 µM.

Molecules are shown by their SMILES.

On to `CCC(COC(=O)c1cc(OC)c(OC)c(OC)c1)(c1ccccc1)N(C)C.O=C(O)/C=C\C(=O)O` (stereo not given), for which the “Bacterial Biotransformation” value is given as “Compound metabolized” in [1]; “Compound metabolized” in series [2]; “Compound metabolized” in [3]; “Compound metabolized” in [4]; “Compound metabolized” in series [5]; “Compound NOT metabolized” in series [6]. The “Bacterial Biotransformation” value in series [7] is given as “Compound metabolized”; in series [8] it was “Compound metabolized”; in series [9], “Compound metabolized”; in [10], “Compound NOT metabolized”; in series [11] it was “Compound metabolized”; in series [12] it was “Compound metabolized”. The “Bacterial Biotransformation” value in series [13] was “Compound metabolized”; in [14] it was “Compound NOT metabolized”; in [15] it was “Compound metabolized”; in series [16], “Compound metabolized”; in series [17], “Compound metabolized”; in series [18] it was “Compound metabolized”. Also, the “Bacterial Biotransformation” value in [19] and in [20] was “Compound NOT metabolized” throughout.
On to `CC1=C(CC(=O)O)c2cc(F)ccc2/C1=C\c1ccc([S+](C)[O-])cc1` (stereo not given), for which the “Bacterial Biotransformation” value in [1], in series [2], in [3], in series [4], in series [5] and in series [6] was “Compound NOT metabolized” each time. For the same compound, the “Bacterial Biotransformation” value in series [7], in series [8], in series [9], in series [10], in series [11] and in series [12] was “Compound NOT metabolized” in each case. The “Bacterial Biotransformation” value in series [13], in [14], in series [15], in series [16], in series [17] and in series [18] was “Compound NOT metabolized” in each case. Also, the “Bacterial Biotransformation” value in series [19] and in [20] was “Compound NOT metabolized” each time.
Take `CCCCC1=NC2(CCCC2)C(=O)N1Cc1ccc(-c2ccccc2-c2nnn[nH]2)cc1` [IRBESARTAN]: the “Bacterial Biotransformation” value in series [1] was “Compound metabolized”; in series [2] it was “Compound metabolized”; in series [3], “Compound metabolized”; in series [4], “Compound metabolized”; in series [5], “Compound NOT metabolized”; in series [6], “Compound metabolized”. In addition, the “Bacterial Biotransformation” value in series [7] was “Compound metabolized”; in series [8], “Compound NOT metabolized”; in [9] it was “Compound metabolized”; in series [10], “Compound metabolized”; in series [11], “Compound metabolized”; in series [12] it was “Compound metabolized”. Besides, the “Bacterial Biotransformation” value in [13] is listed as “Compound metabolized”; in [14], “Compound metabolized”; in series [15], “Compound metabolized”; in series [16], “Compound metabolized”; in series [17] it was “Compound NOT metabolized”; in [18] it was “Compound metabolized”. Moreover, the “Bacterial Biotransformation” value in series [19] and in series [20] was “Compound metabolized” throughout.
Consider `O=c1[nH]c2ccccc2n1C1CCN(CCCC(c2ccc(F)cc2)c2ccc(F)cc2)CC1` [PIMOZIDE], for which the “Bacterial Biotransformation” value in series [1], in series [2], in series [3], in series [4], in series [5] and in series [6] was “Compound NOT metabolized” each time. Moreover, the “Bacterial Biotransformation” value in [7] is “Compound NOT metabolized”; in series [8], “Compound NOT metabolized”; in series [9] it was “Compound metabolized”; in [10] it was “Compound NOT metabolized”; in [11], “Compound NOT metabolized”; in series [12] it was “Compound NOT metabolized”. The “Bacterial Biotransformation” value in [13], in [14], in [15], in [16], in series [17] and in series [18] was “Compound NOT metabolized” throughout. In addition, the “Bacterial Biotransformation” value in series [19] and in series [20] was “Compound NOT metabolized” in each case.
For `CCOc1ccccc1OCCN[C@H](C)Cc1ccc(OC)c(S(N)(=O)=O)c1.Cl` [TAMSULOSIN HYDROCHLORIDE], the “Bacterial Biotransformation” value in series [1], in series [2], in series [3], in series [4], in series [5] and in [6] was “Compound NOT metabolized” throughout. The “Bacterial Biotransformation” value in series [7], in [8], in series [9], in series [10], in series [11] and in [12] was “Compound NOT metabolized” each time. Further, the “Bacterial Biotransformation” value in series [13], in [14], in series [15], in [16], in series [17] and in series [18] was “Compound NOT metabolized” each time. Moreover, the “Bacterial Biotransformation” value in series [19] and in series [20] was “Compound NOT metabolized” each time.
Regarding `COc1cc2nc(N3CCN(C(=O)C4CCCO4)CC3)nc(N)c2cc1OC` (stereo not given) [TERAZOSIN], the “Bacterial Biotransformation” value in series [1], in [2], in series [3], in series [4], in series [5] and in series [6] was “Compound NOT metabolized” each time. Moreover, the “Bacterial Biotransformation” value in series [7], in series [8], in series [9], in series [10], in series [11] and in series [12] was “Compound NOT metabolized” each time. The “Bacterial Biotransformation” value in [13], in [14], in series [15], in series [16], in series [17] and in series [18] was “Compound NOT metabolized” each time. The “Bacterial Biotransformation” value in series [19] and in series [20] was “Compound NOT metabolized” throughout.
